According to PubChem BioAssay (NCI):
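Results reflect a 48-hour exposure of cells in 96-well plates to compound at five concentrations. GI50: concentration for 50% inhibition of growth. Definition used: TGI = concentration required for complete inhibition of growth.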

How the values were obtained:
Experiment in all cases: DTP human tumour cell line panel, 48 h
OVCAR-3 ovarian = test system: OVCAR-3 ovarian
KM12 colon = test system: KM12 colon
SN12C renal = test system: SN12C renal
SK-MEL-5 melanoma = test system: SK-MEL-5 melanoma
HCC-2998 colon = test system: HCC-2998 colon
A549 NSCLC = test system: A549 NSCLC
ACHN renal = test system: ACHN renal
SF-539 CNS = test system: SF-539 CNS
COLO 205 colon = test system: COLO 205 colon
LOX IMVI melanoma = test system: LOX IMVI melanoma
NCI-H23 lung = test system: NCI-H23 lung
NCI/ADR-RES ovarian = test system: NCI/ADR-RES ovarian
MDA-MB-435 = test system: MDA-MB-435
SF-295 CNS = test system: SF-295 CNS
UO-31 renal = test system: UO-31 renal
T-47D breast = test system: T-47D breast
BT-549 breast = test system: BT-549 breast
PC-3 prostate = test system: PC-3 prostate
U251 CNS = test system: U251 CNS
HOP-92 NSCLC = test system: HOP-92 NSCLC
RXF 393 renal = test system: RXF 393 renal
SNB-75 CNS = test system: SNB-75 CNS
OVCAR-5 ovarian = test system: OVCAR-5 ovarian
OVCAR-8 ovarian = test system: OVCAR-8 ovarian
SF-268 CNS = test system: SF-268 CNS
MDA-MB-231 breast = test system: MDA-MB-231 breast
HCT-15 colon = test system: HCT-15 colon
SK-MEL-2 melanoma = test system: SK-MEL-2 melanoma
UACC-257 melanoma = test system: UACC-257 melanoma
SW-620 colon = test system: SW-620 colon
HL-60(TB) leukemia = test system: HL-60(TB) leukemia
MOLT-4 leukemia = test system: MOLT-4 leukemia
UACC-62 melanoma = test system: UACC-62 melanoma
DU-145 prostate = test system: DU-145 prostate
MALME-3M melanoma = test system: MALME-3M melanoma
EKVX NSCLC = test system: EKVX NSCLC
NCI-H522 lung = test system: NCI-H522 lung
TK-10 renal = test system: TK-10 renal
HS 578T breast = test system: HS 578T breast
SK-OV-3 ovarian = test system: SK-OV-3 ovarian
NCI-H226 lung = test system: NCI-H226 lung
SNB-19 CNS = test system: SNB-19 CNS
IGROV1 ovarian = test system: IGROV1 ovarian
MCF7 breast = test system: MCF7 breast
OVCAR-4 ovarian = test system: OVCAR-4 ovarian
HOP-62 NSCLC = test system: HOP-62 NSCLC
M14 melanoma = test system: M14 melanoma
786-0 renal = test system: 786-0 renal
CAKI-1 renal = test system: CAKI-1 renal
A498 renal = test system: A498 renal
HT29 colon = test system: HT29 colon
SK-MEL-28 melanoma = test system: SK-MEL-28 melanoma
HCT-116 colon = test system: HCT-116 colon
SR leukemia = test system: SR leukemia
NCI-H460 lung = test system: NCI-H460 lung
CCRF-CEM leukemia = test system: CCRF-CEM leukemia
K-562 leukemia = test system: K-562 leukemia

C/C=C(/C(=C/C)c1ccc(O)cc1)c1ccc(O)cc1
GI50 (OVCAR-3 ovarian): 2.37 µM
TGI (OVCAR-3 ovarian): 5.38 µM
GI50 (KM12 colon): 3.73 µM
TGI (KM12 colon): 13.6 µM
GI50 (SN12C renal): 5.22 µM
TGI (SN12C renal): 22.9 µM
GI50 (SK-MEL-5 melanoma): 3.56 µM
TGI (SK-MEL-5 melanoma): 15.2 µM
GI50 (HCC-2998 colon): 8.64 µM
TGI (HCC-2998 colon): 24 µM
GI50 (A549 NSCLC): 4.04 µM
TGI (A549 NSCLC): 19 µM
GI50 (ACHN renal): 9.64 µM
TGI (ACHN renal): 21.4 µM
GI50 (SF-539 CNS): 3.27 µM
TGI (SF-539 CNS): 13.8 µM
GI50 (COLO 205 colon): 3.25 µM
TGI (COLO 205 colon): 10.5 µM
GI50 (LOX IMVI melanoma): 5.51 µM
TGI (LOX IMVI melanoma): 24.3 µM
GI50 (NCI-H23 lung): 5.3 µM
TGI (NCI-H23 lung): 21.9 µM
GI50 (NCI/ADR-RES ovarian): 2.81 µM
TGI (NCI/ADR-RES ovarian): 9.28 µM
GI50 (MDA-MB-435): 1.19 µM
TGI (MDA-MB-435): 3.56 µM
GI50 (SF-295 CNS): 2.48 µM
TGI (SF-295 CNS): 8.11 µM
GI50 (UO-31 renal): 5.34 µM
TGI (UO-31 renal): 24.9 µM
GI50 (T-47D breast): 5.11 µM
TGI (T-47D breast): 21.9 µM
GI50 (BT-549 breast): 7.39 µM
TGI (BT-549 breast): 22.5 µM
GI50 (PC-3 prostate): 4.51 µM
TGI (PC-3 prostate): 17.4 µM
GI50 (U251 CNS): 3.49 µM
TGI (U251 CNS): 15.9 µM
GI50 (HOP-92 NSCLC): 3.98 µM
TGI (HOP-92 NSCLC): 22.7 µM
GI50 (RXF 393 renal): 4.03 µM
TGI (RXF 393 renal): 17.7 µM
GI50 (SNB-75 CNS): 1.9 µM
TGI (SNB-75 CNS): 5.34 µM
GI50 (OVCAR-5 ovarian): 8.38 µM
TGI (OVCAR-5 ovarian): 23.2 µM
GI50 (OVCAR-8 ovarian): 4.65 µM
TGI (OVCAR-8 ovarian): 25.4 µM
GI50 (SF-268 CNS): 6.32 µM
TGI (SF-268 CNS): 22.8 µM
GI50 (MDA-MB-231 breast): 4.58 µM
TGI (MDA-MB-231 breast): 22.2 µM
GI50 (HCT-15 colon): 5.47 µM
TGI (HCT-15 colon): 20.3 µM
GI50 (SK-MEL-2 melanoma): 8.4 µM
TGI (SK-MEL-2 melanoma): 30.7 µM
GI50 (UACC-257 melanoma): 9.4 µM
TGI (UACC-257 melanoma): 24.8 µM
GI50 (SW-620 colon): 3.85 µM
TGI (SW-620 colon): 14.9 µM
GI50 (HL-60(TB) leukemia): 3.9 µM
TGI (HL-60(TB) leukemia): 25.1 µM
GI50 (MOLT-4 leukemia): 5.43 µM
TGI (MOLT-4 leukemia): 24.2 µM
GI50 (UACC-62 melanoma): 4.86 µM
TGI (UACC-62 melanoma): 18.7 µM
GI50 (DU-145 prostate): 3.35 µM
TGI (DU-145 prostate): 10.4 µM
GI50 (MALME-3M melanoma): 7.07 µM
TGI (MALME-3M melanoma): 31 µM
GI50 (EKVX NSCLC): 7.38 µM
TGI (EKVX NSCLC): 26.7 µM
GI50 (NCI-H522 lung): 3.63 µM
TGI (NCI-H522 lung): 16.9 µM
GI50 (TK-10 renal): 12.8 µM
TGI (TK-10 renal): 29.4 µM
GI50 (HS 578T breast): 4.3 µM
TGI (HS 578T breast): 30.2 µM
GI50 (SK-OV-3 ovarian): 2.54 µM
TGI (SK-OV-3 ovarian): 8.88 µM
GI50 (NCI-H226 lung): 9.36 µM
TGI (NCI-H226 lung): 47 µM
GI50 (SNB-19 CNS): 4.79 µM
TGI (SNB-19 CNS): 21 µM
GI50 (IGROV1 ovarian): 5.41 µM
TGI (IGROV1 ovarian): 36.8 µM
GI50 (MCF7 breast): 7.19 µM
TGI (MCF7 breast): 26.1 µM
GI50 (OVCAR-4 ovarian): 8.18 µM
TGI (OVCAR-4 ovarian): 33.6 µM
GI50 (HOP-62 NSCLC): 3.62 µM
TGI (HOP-62 NSCLC): 16 µM
GI50 (M14 melanoma): 3.33 µM
TGI (M14 melanoma): 12.5 µM
GI50 (786-0 renal): 5.54 µM
TGI (786-0 renal): 27 µM
GI50 (CAKI-1 renal): 3.42 µM
TGI (CAKI-1 renal): 16.9 µM
GI50 (A498 renal): 6.22 µM
TGI (A498 renal): 19.3 µM
GI50 (HT29 colon): 3.71 µM
TGI (HT29 colon): 12.6 µM
GI50 (SK-MEL-28 melanoma): 5.71 µM
TGI (SK-MEL-28 melanoma): 21.1 µM
GI50 (HCT-116 colon): 4.58 µM
TGI (HCT-116 colon): 16.2 µM
GI50 (SR leukemia): 4.24 µM
TGI (SR leukemia): 92.9 µM
GI50 (NCI-H460 lung): 3.44 µM
TGI (NCI-H460 lung): 13.2 µM

O=C(c1ccco1)N(Cc1cccnc1)C(=S)N(Cc1cccnc1)C(=O)c1ccco1
TGI (OVCAR-3 ovarian): 23.4 µM
TGI (KM12 colon): 23.4 µM
TGI (SN12C renal): 24 µM
TGI (SK-MEL-5 melanoma): 29.1 µM
TGI (HCC-2998 colon): 31.8 µM
TGI (A549 NSCLC): 38.8 µM
TGI (ACHN renal): 30.7 µM
TGI (SF-539 CNS): 26.7 µM
TGI (COLO 205 colon): 16.3 µM
TGI (LOX IMVI melanoma): 27.8 µM
TGI (NCI-H23 lung): 61.6 µM
TGI (NCI/ADR-RES ovarian): > 100 µM
TGI (MDA-MB-435): 38.7 µM
TGI (SF-295 CNS): 77.1 µM
TGI (UO-31 renal): 28.8 µM
TGI (T-47D breast): 63.2 µM
TGI (BT-549 breast): 66.2 µM
TGI (PC-3 prostate): 19.7 µM
TGI (U251 CNS): 31.4 µM
TGI (HOP-92 NSCLC): 38.7 µM
TGI (CCRF-CEM leukemia): 14.5 µM
TGI (RXF 393 renal): 57.4 µM
TGI (SNB-75 CNS): 98.7 µM
TGI (OVCAR-5 ovarian): 46.9 µM
TGI (OVCAR-8 ovarian): 66 µM
TGI (SF-268 CNS): 43.6 µM
TGI (MDA-MB-231 breast): 22.6 µM
TGI (HCT-15 colon): 77.7 µM
TGI (SK-MEL-2 melanoma): 28.1 µM
TGI (UACC-257 melanoma): 31.7 µM
TGI (SW-620 colon): 36.5 µM
TGI (HL-60(TB) leukemia): 49 µM
TGI (MOLT-4 leukemia): > 100 µM
TGI (UACC-62 melanoma): 29.7 µM
TGI (DU-145 prostate): > 100 µM
TGI (MALME-3M melanoma): 32.7 µM
TGI (EKVX NSCLC): 35.8 µM
TGI (NCI-H522 lung): 29.9 µM
TGI (TK-10 renal): 23.3 µM
TGI (HS 578T breast): 56.4 µM
TGI (SK-OV-3 ovarian): 83.8 µM
TGI (NCI-H226 lung): 47.9 µM
TGI (SNB-19 CNS): 83.5 µM
TGI (MCF7 breast): 14.7 µM
TGI (OVCAR-4 ovarian): 50 µM
TGI (HOP-62 NSCLC): 44.1 µM
TGI (M14 melanoma): 27 µM
TGI (786-0 renal): 11.8 µM
TGI (CAKI-1 renal): 45.4 µM
TGI (K-562 leukemia): > 100 µM
TGI (A498 renal): 62.7 µM
TGI (HT29 colon): 44.3 µM
TGI (SK-MEL-28 melanoma): 45.8 µM
TGI (HCT-116 colon): 20.6 µM
TGI (SR leukemia): > 100 µM
TGI (NCI-H460 lung): 55.6 µM
